Source: PMC9794698, “Structure optimization of new tumor-selective Passerini α-acyloxy carboxamides as Caspase-3/7 activators” (Scientific Reports, 2022)
Values joined by “and” are separate entries in the source; they are usually repeats but may differ in a detail not shown here. Equal entries are not always repeated. Where two headings read alike, the source gives them in different places.

Legend:
Wi-38 cells = experiment: MTT cytotoxicity assay, normal human fibroblasts; type: cell-based; conditions: 72 h, mean ± SEM; for MNTC: dose at 100% cell viability, read-out: Wi-38 EC100
Description: (§1) Wi-38, Caco-2 and HepG-2 cells were cultured in DMEM medium-contained 10% FBS, seeded as 5 × 10^3 cells per well in 96-well cell culture plate and incubated at 37 °C in 5% CO2 incubator. After 24 h, serial concentrations of the test compounds were incubated with cells for 72 h. Cell viability was assayed via MTT protocol[27] (Supplementary data). IC50 values of the synthesized compounds were measured via the Graphpad Instat software. Morphological changes were examined using phase contrast inverted microscope with a digital camera (Olympus, Japan). […]
(§2) Normal human lung fibroblast Wi-38 cell line was used to detect cytotoxicity of the studied compounds.
Wi-38 cell line was cultured in DMEM medium-contained 10% fetal bovine serum (FBS), seeded as 5x10^3 cells per well in 96-well cell culture plate and incubated at 37 °C in 5% CO2 incubator. After 24 h for cell attachment, serial concentrations of the synthetic compounds and standard chemotherapy (5-fluorouracil) were incubated with Wi-38 cells for 72 h. Cell viability was assayed by MTT method Twenty microliters of 5 mg/ml MTT (Sigma, USA) was added to each well and the plate was incubated at 37 °C for 3 h. Then MTT solution was removed, 100 µl DMSO was added, and the absorbance of each well was measured with a microplate reader (BMG LabTech, Germany) at 570 nm. The dose (EC50 and EC100) values (at 50% and100% cell viability, respectively) of the tested compounds was estimated by the Graphpad Instat software. […]

Caco-2 cells [1] = experiment: MTT cytotoxicity assay, colorectal cancer cells; type: cell-based, human; conditions: for IC50: Homo sapiens; for Caco-2 SI: ratio of IC50 against normal cells (Wi-38) to IC50 against Caco-2
Description: as §1, §2
(§3) Wi-38 cell line was cultured in DMEM medium-contained 10% fetal bovine serum (FBS), seeded as 5x10^3 cells per well in 96-well cell culture plate and incubated at 37 °C in 5% CO2 incubator. After 24 h for cell attachment, serial concentrations of the synthetic compounds and standard chemotherapy (5-fluorouracil) were incubated with Wi-38 cells for 72 h. Cell viability was assayed by MTT method Twenty microliters of 5 mg/ml MTT (Sigma, USA) was added to each well and the plate was incubated at 37 °C for 3 h. Then MTT solution was removed, 100 µl DMSO was added, and the absorbance of each well was measured with a microplate reader (BMG LabTech, Germany) at 570 nm. The dose (EC50 and EC100) values (at 50% and100% cell viability, respectively) of the tested compounds was estimated by the Graphpad Instat software.
(§4) The anticancer effect of the above-mentioned compounds was assayed using human colon cancer cell line (Caco-2) and liver cancer cell line (HepG-2) that were cultured in DMEM (Lonza, USA) supplemented with 10%
(§5) FBS. All cancer cells (5x10^3 cells/well) were seeded in sterile 96-well plates. After 24h, serial concentrations of the tested compounds and 5-fluorouracil (Fu) were incubated with two cancer cell lines for 72 h at 37 °C in 5% CO2 incubator. MTT method was done as described above. The half maximal inhibitory concentration (IC50) values were calculated using the Graphpad Instat software. Furthermore, cellular morphological changes before […]
(§6) contrast inverted microscope with a digital camera (Olympus, Japan).

HepG-2 cells = experiment: MTT cytotoxicity assay, liver cancer cells; type: cell-based, human; conditions: for IC50: Homo sapiens, HepG2; for HepG-2 SI: ratio of IC50 against normal cells (Wi-38) to IC50 against HepG-2
Description: as §1, §2, §3, §4, §5, §6

caspase-3/7 [2] = experiment: Caspase-3/7 activation assay (ApoONE kit) in Caco-2 cells; type: cell-based, human; conditions: Caco-2 cells treated with IC50 doses; relative to untreated cells; mean ± SEM
Description: (§7) ApoONE® Caspase-3/7 kit was used following the manufacturer’s instructions (Supplementary data).
(§8) 5.2. Caspase-3/7 activation assay
(§9) The caspase 3/7 activation was assessed, as a key indicator in caspase-dependent apoptosis, using ApoONE® Caspase-3/7 kit following the manufacturer’s instructions. This kit used a nonfluorescence substrate […]
(§10) the generation of the fluorescence signals of Rhodamine 110. Thesesignal were measured at 490 nm excitation and 520 nm emission using the fluorescence microplate reader (BMG LabTech, Germany). […]

caspase-3/7 [3] = experiment: Caspase-3/7 activation assay (ApoONE kit) in HepG-2 cells; type: cell-based, human; conditions: HepG-2 cells treated with IC50 doses; relative to untreated cells; mean ± SEM
Description: as §7, §8, §9, §10

Bcl2 = experiment: RT-qPCR of Bcl2 expression in Caco-2 cells; type: cell-based, human; conditions: 0.06 µM for 72 h, mean ± SEM
Description: (§11) RNAs of untreated and treated cancer cells were extracted using Gene JET RNA purification kit (Thermo Scientific, USA). Then cDNAs were synthesized using cDNA Synthesis Kit (Thermo Scientific, USA). Real time PCR was performed using SYBR green master mix and specific primers (Forward/Reverse) as detailed in the supplementary data. […]
5.3. Real-time Quantitative PCR Analysis of Bcl2 […]
as §11, with “µM, for 72 h in 5% CO2 incubator. RNAs” for “RNAs”, “primers” for “primers (Forward/Reverse) as detailed in the supplementary data.”
The thermal cycling parameters were pre-denaturation, followed by 40 amplification cycles of 1 min at 95°C and 30 s at 60 °C and at 72°C for 30 sec. GAPDH mRNA was quantified to adjust the amount of mRNA in each sample. The 2−ΔΔCT equation was used to estimate change in gene expressions before and after treatment of cancer cells.
Table 1 primer sequences of the used genes

Caco-2 cells [4] = experiment: Flow cytometric analysis of apoptosis (annexin V/PI); type: cell-based, human; conditions: IC50 doses, 72 h, annexin-stained, mean ± SEM
Description: Reverse: 5′-[…]-3′
5.4. Flow cytometric analysis of apoptosis […]
human colon cancer cell line (Caco-2) for 72 h, at their minimum IC50 doses. After trypsinization, the untreated and treated cancer cells were stained with fluorescein isothiocyanate (FITC)-annexin V/ propidium iodide (PI) for 15 min. After washing with PBS, the annexin-stained apoptotic population was quantified using flow cytometry at FITC signal detector (FL1) against the phycoerythrin emission signal detector (FL2).

[5] = Caco-2, MTT, 72 h, mean ± SEM, read-out: Caco-2 IC50 (converted)
[6] = MTT, 72 h, mean ± SEM, read-out: HepG-2 IC50
[7] = microscopic examination after 72 h, compared to untreated and 5-FU-treated cells

Row | Structure (SMILES) | MNTC (Wi-38 cells) | IC50 (Wi-38 cells) | IC50 (Caco-2 cells [1]; [5]) | Caco-2 SI (Caco-2 cells [1]) | IC50 (HepG-2 cells; [6]) | HepG-2 SI (HepG-2 cells) | melting point | Relative fold increment in caspase 3/7 activity, Caco-2 (caspase-3/7 [2]) | Relative fold increment in caspase 3/7 activity, HepG-2 (caspase-3/7 [3]) | Bcl2 gene relative fold change (Bcl2) | SI against the screened cell lines (Caco-2 cells [1]; Caco-2 and HepG-2 cells versus Wi-38) | IC50 (Caco-2 cells [1]; Caco-2, -log (IC50), molar, read-out: Caco-2 IC50 (converted)) | IC50 (Caco-2 cells [1]; Caco-2 and HepG-2 cells, MTT, read-out: IC50 against the screened cell lines) | Caco-2 LE (Caco-2 cells [1]; LE = 1.37 (pIC50)/NHA) | Caco-2 LLE (Caco-2 cells [1]; LLE = pIC50–cLog P) | Morphological alterations of treated Caco-2 cells (Caco-2 cells [1]; [7]) | IC50 (HepG-2 cells; read-out: HepG-2 pIC50 (converted)) | Morphological alterations of treated HepG-2 cells (HepG-2 cells; [7]) | % Apoptosis (total apoptotic cell population) (Caco-2 cells [4])
1 | CCOC(=O)c1ccc(NC(=O)C2(OC(=O)C=Cc3ccc(C(F)(F)F)cc3)CCCCC2)cc1 [7h, Ethyl-4-(1-((3-(4-(trifluoromethyl)phenyl)acryloyl)oxy)cyclohexanecarboxamido)benzoate] | 1650 ± 39 nM | 18700 ± 2040 nM | 138 ± 14 nM | 135.340 | 259 ± 73 nM | 72.111 | 145 to 147 °C |  |  |  |  |  |  |  |  |  |  |  | 
2 | CCOC(=O)c1ccc(NC(=O)C2(OC(=O)CS)CCCCC2)cc1 [7k, Ethyl-4-(1-(2-mercaptoacetoxy)cyclohexane-1-carboxamido)benzoate] | 1465 ± 10 nM | 9670 ± 102 nM | 140 ± 3 nM | 69.057 | 141 nM | 68.567 | 108 to 110 °C |  |  |  |  |  |  |  |  |  |  |  | 
3 | CCOC(=O)c1ccc(NC(=O)C2(OC(=O)c3ccccc3I)CCCCC2)cc1 [7f, 1-((4-(Ethoxycarbonyl)phenyl)carbamoyl)cyclohexyl 2-iodobenzoate] | 967 ± 26 nM | 17100 ± 1690 nM | 129 ± 28 nM | 132.209 | 147 ± 46 nM | 116.020 | 148 to 150 °C |  |  |  |  |  |  |  |  |  |  |  | 
4 | CCOC(=O)c1ccc(N2C(=O)OC3(CCCCC3)C2=O)cc1 [compound 11, Ethyl-4-(2,4-dioxo-1-oxa-3-azaspiro[4.5]decan-3-yl)benzoate] | 4940 ± 1540 nM | 9920 ± 1610 nM | 239 ± 71 nM | 41.510 | 209 ± 17 nM | 47.468 | 143 to 145 °C |  |  |  |  |  |  |  |  |  |  |  | 
5 | CCOC(=O)c1ccc(NC(=O)C2(OC(=O)c3ccc4ccccc4n3)CCCCC2)cc1 [7b, 1-((4-(Ethoxycarbonyl)phenyl)carbamoyl)cyclohexyl quinoline-2-carboxylate] | 1790 ± 111 nM | 18200 ± 2220 nM | 172 ± 22 nM | 105.697 | 228 ± 27 nM | 79.736 | 103 to 105 °C |  |  |  |  |  |  |  |  |  |  |  | 
6 | CCOC(=O)c1ccc(NC(=O)C2(OC(=O)c3ccc(Cl)cc3)CCCCC2)cc1 [7d, 1-((4-(Ethoxycarbonyl)phenyl)carbamoyl)cyclohexyl 4-chlorobenzoate] | 1700 ± 165 nM | 24800 ± 10200 nM | 201 ± 19 nM | 123.174 | 407 ± 16 nM | 60.830 | 193 to 195 °C |  |  |  |  |  |  |  |  |  |  |  | 
7 | CCOC(=O)c1ccc(NC(=O)C2(OC(=O)c3ccccc3Cl)CCCCC2)cc1 [7e, 1-((4-(Ethoxycarbonyl)phenyl)carbamoyl)cyclohexyl 2-chlorobenzoate] | 1780 ± 169 nM | 19800 ± 1020 nM | 117 ± 10 nM | 168.820 | 130 ± 9 nM | 151.938 | 130 to 132 °C |  |  |  |  |  |  |  |  |  |  |  | 
8 | CCOC(=O)c1ccc(NC(=O)C2(OC(=O)CNC(=O)c3ccc(NC(=O)OC(C)(C)C)cc3)CCCCC2)cc1 [7i, Ethyl-4-(1-(2-(4-((tert-butoxycarbonyl)amino)benzamido)acetoxy)cyclohexanecarboxamido) benzoate] | 1630 ± 259 nM | 22800 ± 3100 nM | 132 ± 50 nM | 172.765 | 127 ± 44 nM | 179.566 | 115 to 117 °C |  |  |  |  |  |  |  |  |  |  |  | 
9 | O=c1[nH]cc(F)c(=O)[nH]1 [5-FU, 5-fluorouracil, reference compound] | 840 ± 55 nM | 1990 ± 135 nM | 865 ± 39 nM | 2.301 | 1610 ± 28 nM | 1.233 |  | 1.016 ± 0.009 fold | 1.001 ± 0.001 fold | 0.948 ± 0.027 fold |  |  |  |  |  |  |  |  | 
10 | CCOC(=O)c1ccc(NC(=O)C2(OC(=O)c3ccccc3)CCCCC2)cc1 [7c, Ethyl-4-(1-(benzoyloxy)cyclohexanecarboxamido)benzoate] | 2100 ± 92 nM | 7700 ± 321 nM | 276 ± 34 nM | 27.909 | 184 ± 9 nM | 41.864 | 140 to 142 °C |  |  |  |  |  |  |  |  |  |  |  | 
11 | CCOC(=O)c1ccc(NC(=O)C2(O)CCCCC2)cc1 [compound 9, Ethyl 4-(1-hydroxycyclohexanecarboxamido)benzoate] | 3220 ± 217 nM | 16800 ± 3010 nM | 154 ± 7 nM | 109.272 | 150 ± 4 nM | 112.186 | 160 to 163 °C |  |  |  |  |  |  |  |  |  |  |  | 
12 | CCOC(=O)c1ccc(NC(=O)C2(OC(=O)Cc3ccccc3)CCCCC2)cc1 [7g, Ethyl-4-(1-(2-phenylacetoxy)cyclohexanecarboxamido)benzoate] | 1300 ± 105 nM | 17100 ± 2150 nM | 64 ± 6 nM | 266.828 | 65 ± 4 nM | 262.723 |  |  | 4.118 ± 0.083 fold | 0.087 ± 0.009 fold | 262–266 | 64.1 nM | 60 nM | 0.328 | 3.453 | severe shrinkage and morphological alterations | 65 nM | severe shrinkage and morphological alterations | 58.7% and 58.730 ± 2.930%
